In patent US8097625B2, “Combination of sedative and a neurotransmitter modulator, and methods for improving sleep quality and treating depression” (priority 2003, dated 2012):

Tested on: subjects with insomnia related to major depressive disorder
Assay: DREAMDD clinical study: Clinical Global Impression (Severity 1=normal to 7=most extremely depressed; Global Improvement 1=very much improved to 7=very much worse)
Format: in vivo, human
Details: for CGI - Global Improvement, Mean (SD) / CGI - Global Improvement, Median / CGI - Severity, Change from Baseline, Mean (SD) / CGI - Severity, Change from Baseline, Median / CGI - Severity, Observed Value, Mean (SD) / CGI - Severity, Observed Value, Median / CGI - Severity, Change from Baseline, Least Squares Mean (SE): ITT; for CGI - Severity, Change from Baseline, Least Squares Mean (SE): ANCOVA
Method: Depression Response to Eszopiclone in Adults With Major Depressive Disorder (DREAMDD): A Randomized, Double-Blind, Placebo-Controlled, Parallel-Group, 8-Week, Safety and Efficacy Study of Eszopiclone 3 mg Compared to Placebo in Subjects with Insomnia Related to Major Depressive Disorder
This study was a double-blind randomized, placebo-controlled, parallel group study. […] All subjects must satisfy DSM-IV criteria for insomnia related to major depression.
Sleep, Depression, and Productivity Questionnaires and Clinical Global Impression: The following questionnaires were administered as listed below. • Epworth Sleepiness Scale (ESS): ESS was completed by the subject at Visits 2-10. The ESS is a subjective assessment of the likelihood of falling asleep in various situations. • Insomnia Severity Index (ISI): ISI was completed by the subject at Visits 3, 5, 7, 9 and 10. The ISI is a subjective assessment of sleep quality, restedness/refreshness upon arising, daytime fatigue, attention/concentration and relationship and mood disturbances. • Work Limitations Questionnaire (WLQ): WLQ was completed by the subject at Visits 3, 5, 7, 9, and 10. The WLQ is a validated self-report instrument for measuring the degree to which chronic health problems interfere with ability to perform job roles, addressing the content of the job through a demand-level methodology. • Hamilton Depression-17: HAM-D-17 was administered via IVRS at screening and rated by a trained clinician at Visits 3, 7, 9, and 10. • SF-36: SF-36 was completed by the subject at Visits 3, 7, 9 and 10. The SF-36 represents multiple operational definitions of health, including function and dysfunction, distress and well-being, objective reports and subjective ratings, and both favorable and unfavorable self-evaluations of general health status. • Clinical Global Impression (CGI): CGI was completed by the investigator at Visits 3-10 The CGI is the investigator's subjective assessment of improvement in the subject's depressive symptoms. The response on the CGI at Visit 7 (Week 4 of double-blind treatment) was used by the investigator to assess the need for increasing the dose of fluoxetine to 40 mg daily (in the morning). […] Study Conduct
Clinical Global Impression: In this test, a medical professional rates the patient's depression and whether the improvement in depression is due to the drug treatment. Question 1) Severity: Considering your total clinical experience with this particular population, how depressed is the patient at this time? Respond by indicating 1=normal, not at all depressed, 2=borderline depressed, 3=mildly depressed, 4=moderately depressed, 5=markedly depressed, 6=severely depressed, or 7=among the most extremely depressed patients. Question 2) Global Improvement: Rate total improvement whether or not, in your judgment, it is due entirely to drug treatment. Compared to his/her condition at Visit 3, how much has he/she changed?
Methods: Patients who met DSM-IV criteria for new MDD and insomnia received fluoxetine 20 mg QAM plus either eszopiclone 3 mg (n=275) or placebo (n=270) nightly for 8 weeks. Efficacy was assessed using HAMD17 and Clinical Global Impression Improvement (CGI-I) and Severity (CGI-S). Response=50% decrease from baseline HAMD17; remission=HAMD17≦7.

[1] = Visit 4 (Week 1), 3 mg nightly + fluoxetine
[2] = Visit 5 (Week 2), 3 mg nightly + fluoxetine
[3] = Visit 6 (Week 3), 3 mg nightly + fluoxetine
[4] = Visit 7 (Week 4), 3 mg nightly + fluoxetine
[5] = Visit 8 (Week 6), 3 mg nightly + fluoxetine
[6] = Visit 9 (Week 8), 3 mg nightly + fluoxetine
[7] = Visit 10 (EOT; Week 10, after single-blind wash-out), eszopiclone 3 mg group

Structure (SMILES): CN1CCN(C(=O)OC2c3nccnc3C(=O)N2c2ccc(Cl)cn2)CC1 (single isomer, unassigned; (+)) [Eszopiclone, (+) 6-(5-chloro-2-pyridinyl)-6,7-dihydro-7-oxo-5H-pyrrolo[3,4b]pyrazin-5-yl 4-methylpiperazine-1-carboxylate]
- CGI - Global Improvement, Mean (SD) [1]: 3.3 (0.8)
- CGI - Global Improvement, Median [1]: 3.0
- CGI - Severity, Change from Baseline, Mean (SD) [1]: −0.3 (0.7)
- CGI - Severity, Change from Baseline, Median [1]: 0.0
- CGI - Severity, Observed Value, Mean (SD) [1]: 4.0 (0.7)
- CGI - Severity, Observed Value, Median [1]: 4.0
- CGI - Severity, Change from Baseline, Least Squares Mean (SE) [1]: −0.3 (0.0)
- CGI - Global Improvement, Mean (SD) [2]: 2.9 (0.8)
- CGI - Global Improvement, Median [2]: 3.0
- CGI - Severity, Change from Baseline, Mean (SD) [2]: −0.8 (0.9)
- CGI - Severity, Change from Baseline, Median [2]: −1.0
- CGI - Severity, Observed Value, Mean (SD) [2]: 3.6 (0.9)
- CGI - Severity, Observed Value, Median [2]: 4.0
- CGI - Severity, Change from Baseline, Least Squares Mean (SE) [2]: −0.8 (0.1)
- CGI - Global Improvement, Mean (SD) [3]: 2.6 (0.9)
- CGI - Global Improvement, Median [3]: 3.0
- CGI - Severity, Change from Baseline, Mean (SD) [3]: −1.1 (1.0)
- CGI - Severity, Change from Baseline, Median [3]: −1.0
- CGI - Severity, Observed Value, Mean (SD) [3]: 3.2 (1.0)
- CGI - Severity, Observed Value, Median [3]: 3.0
- CGI - Severity, Change from Baseline, Least Squares Mean (SE) [3]: −1.1 (0.1)
- CGI - Global Improvement, Mean (SD) [4]: 2.4 (1.0)
- CGI - Global Improvement, Median [4]: 2.0
- CGI - Severity, Change from Baseline, Mean (SD) [4]: −1.4 (1.1)
- CGI - Severity, Change from Baseline, Median [4]: −1.0
- CGI - Severity, Observed Value, Mean (SD) [4]: 3.0 (1.1)
- CGI - Severity, Observed Value, Median [4]: 3.0
- CGI - Severity, Change from Baseline, Least Squares Mean (SE) [4]: −1.3 (0.1)
- CGI - Global Improvement, Mean (SD) [5]: 1.9 (0.9)
- CGI - Global Improvement, Median [5]: 2.0
- CGI - Severity, Change from Baseline, Mean (SD) [5]: −1.8 (1.2)
- CGI - Severity, Change from Baseline, Median [5]: −2.0
- CGI - Severity, Observed Value, Mean (SD) [5]: 2.5 (1.0)
- CGI - Severity, Observed Value, Median [5]: 2.5
- CGI - Severity, Change from Baseline, Least Squares Mean (SE) [5]: −1.8 (0.1)
- CGI - Global Improvement, Mean (SD) [6]: 1.9 (1.0)
- CGI - Global Improvement, Median [6]: 2.0
- CGI - Severity, Change from Baseline, Mean (SD) [6]: −1.9 (1.3)
- CGI - Severity, Change from Baseline, Median [6]: −2.0
- CGI - Severity, Observed Value, Mean (SD) [6]: 2.4 (1.2)
- CGI - Severity, Observed Value, Median [6]: 2.0
- CGI - Severity, Change from Baseline, Least Squares Mean (SE) [6]: −1.8 (0.1)
- CGI - Severity, Change from Baseline, Least Squares Mean (SE) [7]: −2.2 (0.1)
- CGI - Global Improvement, Mean (SD) [7]: 1.6 (0.9)
- CGI - Global Improvement, Median [7]: 1.0
- CGI - Severity, Change from Baseline, Mean (SD) [7]: −2.3 (1.2)
- CGI - Severity, Change from Baseline, Median [7]: −2.0
- CGI - Severity, Observed Value, Mean (SD) [7]: 2.0 (1.0)
- CGI - Severity, Observed Value, Median [7]: 2.0
- CGI-I and CGI-S scores versus placebo (p<0.05, 3 mg nightly + fluoxetine): significantly greater
